In paper PMC9865752, “Design and Synthesis of (Z)-2-(Benzylamino)-5-benzylidenethiazol-4(5H)-one Derivatives as Tyrosinase Inhibitors and Their Anti-Melanogenic and Antioxidant Effects” (Molecules, 2023):

Tests used:
[1] = Peroxynitrite scavenging assay; conditions: 20 µM; SIN-1 as generator; DHR123 probe
Experimental: The effects of the BABT derivatives on peroxynitrite scavenging activities were also examined using SIN-1 as an RNS generator and dihydrorhodamine (DHR123) as an ROS indicator. DHR123 was converted to fluorescent rhodamine 123 by peroxynitrite generated by SIN-1. Therefore, the peroxynitrite scavenging activities of 1–14 were assessed by measuring the fluorescence of rhodamine 123. BABT derivatives and penicillamine, the positive control, were used at a concentration of 20 µM.
The peroxynitrite scavenging activities of the BABT derivatives were assessed using the method developed by Kooy, involving the monitoring of highly fluorescent rhodamine 123, which was rapidly produced from non-fluorescent DHR123 in the presence of peroxynitrite. Rhodamine buffer (pH 7.4) was composed of 50 mM sodium phosphate dibasic, 50 mM sodium phosphate monobasic, 90 mM sodium chloride, 5 mM potassium chloride, and 100 µM DTPA. A 10 µL aliquot of BABT derivatives or PCA (final concentration: 20 µM) was seeded in a black 96-well plate. Then, 10 µL of SIN-1 (10 µM) was added to induce radical species generation and mixed with 180 µL of rhodamine buffer. Fluorescence intensity was measured at emission and excitation wavelengths of 535 and 485 nm, respectively, using a fluorescence microplate reader (Berthold Technologies GmbH & Co.). PCA was used as the positive control.

[2] = test system: microphthalmia-associated transcription factor (MITF); assay: Western blotting of MITF protein expression; assay type: cell-based, murine
Experimental: We investigated whether, in addition to the direct inhibition of tyrosinase, another inhibitory mechanism of melanogenesis by derivative 8 may be related to the expression of proteins involved in melanogenesis. For the Western blotting experiment, B16F10 cells were treated with α-MSH (1 µM) plus IBMX (200 µM), leading to a 1.7- and 4.9-fold increase in expression levels of melanogenesis-associated proteins tyrosinase and MITF, compared to those in the untreated control (100%) (Figure 13).
B16F10 cells were seeded in a 60 mm dish at a density of 5 × 10^5 cells/mL for 24 h, washed with cold PBS, and harvested. Cytosolic and nuclear fractions of cell lysates were extracted using lysis buffer, as described previously. Protein concentrations in the cell lysates were estimated using the BCA protein assay (Pierce, Rockford, IL, USA). […] The membranes were washed and protein bands detected using the SuperSignal West Pico Chemiluminescence assay kit (Advansta, San Jose, CA, USA) and the Davinch–Chem program (Davinch-K, Seoul, Republic of Korea). Immunoblotting data were quantified using CS Analyzer 3.2 (Densitograph) image analysis software (http://www.attokorea.co.kr, accessed on 21 November 2022).

## O=C1N=C(NCc2ccccc2)S/C1=C\c1ccc(O)cc1O [Compound 8, (Z)-2-(benzylamino)-5-(2,4-dihydroxybenzylidene)thiazol-4(5H)-one]
[1]
  peroxynitrite scavenging activity (in words): scavenged peroxynitrite more potently than did penicillamine
[2]; 10 µM, α-MSH plus IBMX treated B16F10 cells
  relative expression level of MITF protein: lowered the protein expression to the same or lower control levels
[2]; 5, 10 and 20 µM, α-MSH (1 µM) plus IBMX (200 µM) treated B16F10 cells
  relative expression level of MITF protein: significantly reduced the relative expression levels of tyrosinase and MITF in a dose-dependent manner
